Measured values from patent US11365161B2, “Urea ammonium sulphate-based composition and method for the manufacture thereof” (YARA INTERNATIONAL ASA, priority 2018, dated 2022).
“Also recorded” adds a separate entry of the source.

Assays:
Format in all cases: physicochemical
[1] = Volatilization measurements (ammonia release, 2 L diffusion kit, Draeger tube); details: YaraVera Amidas product comprising 462 ppm nBTPT, treated with stabilizer (FIG. 1, Table 1)
From the text: 1. Volatilization Measurements (Ammonia Release 2 L Diffusion Kit) […] Through the lid, a […] tube is placed for the measurement of vol % ammonia. The […] tube turns from yellow to bleu/purple when ammonia is absorbed by the tube. The amount of vol % ammonia released can be followed in time. Experiment 1 defines the problem.

[2] = Stability of nBTPT on urea ammonium sulphate (YaraVera Amidas) during storage, HPLC analysis of nBTPT content; details: for Stabilizing effect on nBTPT (MgSO4/MgO combinations): Experiment 4: YaraVera Amidas product comprising 462 ppm nBTPT (FIG. 4)
Protocol: For lab scale experiments, 1.2 kg of solid fertilizer material was added to a lab scale drum. […] A residence time of 10 minutes was applied and the rotating speed of the drum was consequently the same in each experiment. […] Before use, the moisture-repellent coating was preheated to 80° C. Larger scale experiments with amounts up to 40 kg of fertilizer material were performed in a concrete mixer. The samples were stored under several conditions, dependent on the type of samples: • Bagged at room temperature (18-25° C.) • Bagged at 40° C. • Open to air at room temperature (18-25° C.) 3.

pH of MgSO4 grades = assay: pH of MgSO4 grades

SMILES: [O]=[Ca] [CaO, calcium oxide]
- Ammonia release [1]: producing ammonia

SMILES: O=S(=O)([O-])[O-].[Ca+2] [CaSO4, CaSO4 anhydrous]
- Ammonia release [1]: no ammonia release

SMILES: [O]=[Mg] [MgO, magnesium oxide, reference compound]
- Ammonia release [1]: producing ammonia
- Stabilizing effect on nBTPT (MgSO4/MgO combinations) [2]: more effective than CaO

SMILES: O=S(=O)([O-])[O-].[Mg+2] [MgSO4 99.5%, MgSO4 anhydrous, >99.5%]
- pH (pH of MgSO4 grades): 8.5

SMILES: O=S(=O)([O-])[O-].[Mg+2] [MgSO4 99.999%, MgSO4 anhydrous, 99.999%]
- pH (pH of MgSO4 grades): 6.1

SMILES: O=S(=O)([O-])[O-].[Mg+2] [MgSO4, magnesium sulphate]
- Ammonia release [1]: no ammonia release; also recorded: no ammonia is generated
- Stabilizing effect on nBTPT in the presence of UAS ([2]; Experiment 2: open to air at room temperature 40 days (FIG. 2A) and in bags at 40 °C 8 days (FIG. 2B), 462 ppm nBTPT): comparable with the effect of the prior art compound (CaO)
- Stabilizing effect on nBTPT (MgSO4/MgO combinations) [2]: little effect
- Stabilizing effect at higher level of magnesium sulphate ([2]; more than 1 weight % magnesium sulphate in the composition): did not produce a proportionally better stabilizing effect

SMILES: O=S(=O)([O-])[O-].[Na+].[Na+] [Na2SO4, reference compound]
- nBTPT stability on the YaraVera Amidas product ([2]; Experiment 3: open plastic containers at room temperature for 21 days, 462 ppm nBTPT (FIG. 3)): negative effect on the stability of nBTPT
